Results published in patent US20170319534A1, “EUTECTIC ANESTHETIC TOPICAL COMPOSITIONS” (Humco Holding Group, Inc., priority 2016, published 2017).

Key:
[1] = cited from earlier work
[2] = tested on: normal human 3D model of epidermal tissue
Text: The remaining components shown in Example 1 above were reduced accordingly, such as by 30.5%. […] Standard Ointment includes 95% white petrolatum and 5% white wax. Permeation was measuring using Franz type diffusion cells and a normal human 3D model of epidermal tissue.

[3] = 3-month/40° C. stability of topical anesthetics; assay type: physicochemical; conditions: for content as percent (in parentheses), 30 DAYS / content, 30 DAYS / content as percent (in parentheses), 60 DAYS / content, 60 DAYS / content as percent (in parentheses), 90 DAYS / content, 90 DAYS: 40° C.; for content as percent (in parentheses), INITIAL / content, INITIAL: 3-month/40° C. stability; for EXPIRY DATING: tentative expiry dating from 3-month/40° C. stability data
Protocol: The tables below show expiration dates for various topical anesthetics, including 3-month/40° C. stability data. Full-term controlled room temperature stability data are used to support the tentative expiry dating.

| SMILES | time to peak effect (ranking) ([1]; applied to mucous membranes) | Percutaneous Absorption Testing, 12 Hours [2] | Percutaneous Absorption Testing, 24 Hours [2] | Percutaneous Absorption Testing, 36 Hours [2] | Percutaneous Absorption Testing, 48 Hours [2] | content as percent (in parentheses), 30 DAYS [3] | content, 30 DAYS [3] | content as percent (in parentheses), 60 DAYS [3] | content, 60 DAYS [3] | content as percent (in parentheses), 90 DAYS [3] | content, 90 DAYS [3] | content as percent (in parentheses), INITIAL [3] | content, INITIAL [3] | EXPIRY DATING [3] | duration of action after topical application [1] |
| --- | --- | --- | --- | --- | --- | --- | --- | --- | --- | --- | --- | --- | --- | --- | --- |
| CCOC(=O)c1ccc(N)cc1 [Benzocaine] | fastest | 100% | 100% | 100% | 100% | (102.5%) | 20.5% W/W | (102.0%) | 20.4% W/W | (98.0%) | 19.6% W/W | (99.0%) | 19.8% W/W | ~1.2 YEARS |  |
| CCCCOc1cc(C(=O)NCCN(CC)CC)c2ccccc2n1 [Dibucaine] |  |  |  |  |  |  |  |  |  |  |  |  |  |  | 3 to 4 h |
| CCN(CC)CC(=O)Nc1c(C)cccc1C [Lidocaine] |  |  |  |  |  | (103.0%) | 10.3% W/W | (101.0%) | 10.1% W/W | (104.0%) | 10.4% W/W | (100.0%) | 10.0% W/W | ~2.0 YEARS |  |
| CCCCNc1ccc(C(=O)OCCN(C)C)cc1 [Tetracaine] |  | 2% | 2% | 3% | 3% | (102.5%) | 4.1% W/W | (100.0%) | 4.0% W/W | (100.0%) | 4.0% W/W | (95.0%) | 3.8% W/W | ~2.0 YEARS | up to 2 hours |
